Laboratory results as given in US20140243239A1, “MULTIPLEXED KINASE INHIBITOR BEADS AND USES THEREOF” (University of North Carolina at Chapel Hill, priority 2011, published 2014).

Assays:
Assay type in all cases: cell-based, human
[1] = tested on: c-Myc; test: c-Myc protein and RNA levels in SUM159 cells (western blot, qRT-PCR); details: 5 μM AZD6244
Description: (§1) Western blotting and RTK arrays: Western blotting and RTK array analysis were performed as previously described (Amin et al., 2010). Amin et al. 2010 Sci Transl Med 2, 16ra17. Detailed methods and antibodies are provided in Supplemental Experimental Procedures.
qRT-PCR: Total RNA was isolated from human breast cancer cell lines or murine tumors using the RNeasy® Plus Mini Kit (Qiagen). Real-time RT-PCR was performed on diluted cDNA using the Applied Biosystems 7500 Fast Real-Time PCR System (standard program) and inventoried TaqMan® Gene Expression Assays. Each cDNA sample was assayed in triplicate. Fold change with respect to the calibrator represents the average of the triplicate values, with error bars representing the range of the mean (95% confidence).
(§2) Western blotting: Proteins from cell lysates were separated by SDS-PAGE chromatography, transferred to nitrocellulose membranes, and probed with the indicated primary antibodies. Antibodies recognizing pAKT (S473), pAKT (T308), AURA, pAXL (Y702), AXL, c-Myc, DDR1, EGFR, pERK1/2 (T202/Y204), pHER3 (Y1197), MAX, pMEK1/2 (S217/S221), MEK1/2, MKP3, pP70S6K (T389), pPDGFRβ (Y751), pPDGFRβ (Y1009), pPDGFR (Y857), PDGFRβ, pRAF (S338), pRSK1 (T359/S363), pVEGFR2 (Y1175), VEGFR2 were obtained from Cell Signaling Technology. Antibodies for Cyclin A2, Cyclin B1, Cyclin D1, ERK2, RAF, and pRAF (S259) were obtained from Santa Cruz Biotechnology. The antibody recognizing Bim was obtained from Chemicon. The antibody recognizing p-c-Myc (S62) was obtained from Abeam. Secondary HRP-anti-rabbit and HRP-anti-goat secondary antibodies were from Jackson Immunoresearch Laboratories and Santa Cruz Biotechnology, respectively. Western blots were visualized by incubation with SuperSignal West Pico Chemiluminescent Substrate (Thermo Scientific).

[2] = tested on: RTKs; test: RTK tyrosine phosphorylation/expression in SUM159 cells (RTK arrays, western blot); details: 5 μM AZD6244; 50 nM BEZ235 (FIG. 3H)
Description: as §1, §2
RTK arrays: Cells were harvested in RTK array lysis buffer containing 20 mM Tris-HCl (pH 8.0), 1% NP-40, 10% glycerol, 137 mM NaCl, 2 mM EDTA, 1×EDTA-free protease inhibitor cocktail (Roche), and 1% each of phosphatase inhibitor cocktails 1 and 2 (Sigma). After incubating on ice for 20 minutes, cell debris was pelleted at 4° C. Lysates (500 μg protein) were applied to R&D Systems Proteome Profiler™ Human Phospho-RTK antibody arrays. Washing and secondary antibody steps were performed according to the manufacturer“s instructions. RTK arrays were visualized by SuperSignal West Pico Chemiluminescent Substrate (Thermo Scientific).

[3] = tested on: kinome (kinase binding to MIBs) of SUM159 cells; test: MIB/MS kinome profiling of inhibitor-treated SUM159 cells
Source text: Multiplexed inhibitor bead affinity chromatography: Cells and tumors were lysed and harvested as previously described (Oppermann et al., 2009). Oppermann et al., 2009 Mol Cell Proteo 8 1751-1764. Briefly, lysates were brought to 1 M NaCl and passed through columns of washed inhibitor-conjugated beads (bisindoylmaleimide-X, SB203580, lapatinib, dasatinib, purvalanol B, VI16832, PP58) to isolate protein kinases from the lysates (see Supplemental Experimental Procedures for MIBs preparation). Kinase-bound inhibitor beads were washed with high-salt buffer and 0.1% SDS before elution in 0.5% SDS solution in high heat. Proteins were purified using chloroform/methanol extraction, resuspended in 50 mM ammonium bicarbonate (pH 8.0) or 50 mM HEPES (pH 8.0) for SILAC or iTRAQ respectfully. Samples were digested overnight at 37° C. with sequencing grade modified trypsin (Promega). iTRAQ labeling of digested peptides was carried out using iTRAQ 4-plex reagent (AB SCIEX) for 2 hrs at room temperature in the dark. Peptides were dried down, separated using Strong Cation Exchange Spin Columns, Mini and isolated with PepClean C-18 Spin Columns (Thermo Scientific).
LC-MS/MS analysis: MS and MS/MS data were acquired using a MALDI TOF/TOF 5800 (AB SCIEX). Peptides were analyzed using ProteinPilot Software Version 3.0 (AB SCIEX) and identification using UniProtKB/Swiss-Prot database (release Oct. 15, 2009). Proteins were only accepted when at least 1 unique peptide was identified at 99% confidence. ProteinPilot software 3.0 identified and quantified changes in kinase binding to MIBs utilizing the Pro Group Algorithm. […] For each protein ratio reported, a p-value is computed based on Student's t-distribution under the null hypothesis that the protein ratio is 1. MIB/MS analysis with cell lines was done in 2-3 independent experiments. A set of three independent experiments using SILAC labeled SUM159 cells treated with AZD6244 or DMSO was used to assess statistical significance and reproducibility of MIBs/MS to profile kinome response (Supplementary Methods).
Cells were lysed on ice for 20 minutes in lysis buffer containing 50 mM HEPES (pH 7.5), 0.5% Triton X-100, 150 mM NaCl, 1 mM EDTA, 1 mM EGTA, 10 mM sodium fluoride, 2.5 mM sodium orthovanadate, 50 ng/mL calyculin A, 1× protease inhibitor cocktail (Roche), and 1% each of phosphatase inhibitor cocktails 2 and 3 (Sigma). Cell lysate was sonicated (3×10 s) on ice and centrifuged for 15 minutes (13,000 rpm) at 4° C. and the supernatant was collected and syringe-filtered through a […] SFCA membrane. The filtered lysate (approximately 40 mg or protein per experiment) was brought to 1 M NaCl and pre-cleared by flowing over 500 μL of blocked and washed NHS-activated Sepharose 4 Fast Flow beads (GE Healthcare). The flow-through was collected and passed through a column of layered inhibitor-conjugated beads (Bisindoylmaleimide-X (50 μL), SB203580 (50 Lapatinib (100 μL), Dasatinib (100 μL), Purvalanol B (100 μL), VI16832 (100 μL), PP58 (100 4)) to isolate protein kinases from the lysates. Kinase-bound inhibitor beads were washed with 20 mL of high-salt buffer and 10 mL of low-salt buffer, each containing 50 mM HEPES (pH 7.5), 0.5% Triton X-100, 1 mM EDTA, 1 mM EGTA, and 10 mM sodium fluoride, and 1 M NaCl or 150 mM NaCl, respectively. A final wash of 1 mL 0.1% SDS was applied to the columns before elution in 1 mL of a 0.5% SDS solution in high heat. Elutions from all columns were combined and cysteines were alkylated by sequential incubations with DTT (final concentration 5 mM) for 20 minutes at 60° C. and iodoacetamide (final concentration 20 mM) for 30 minutes at room temperature in the dark. The elution was spin-concentrated to 100 μL and detergents were removed by a chloroform/methanol extraction. […]

[4] = 5 μM AZD6244, SILAC, TiO2 enrichment of MIB elutions

Cn1cnc2c(F)c(Nc3ccc(Br)cc3Cl)c(C(=O)NOCCO)cc21 [AZD6244]
c-Myc protein and mRNA [1]: rapid loss of c-Myc protein and c-Myc mRNA
RTK phosphorylation profile [2]: induced PDGFRβ, VEGFR2 and AXL phosphorylation
peptides of MIB isolated kinases with decreased phosphorylation [3, 4]: 52 peptides
peptides of MIB isolated kinases with increased phosphorylation [3, 4]: 59 peptides
phosphopeptides of MIB isolated kinases with unchanged phosphorylation status [3, 4]: 365 phosphopeptides
number of kinases with time-dependent MIB binding changes ([3]; 4, 12 and 24 h exposure to AZD6244): more than 140 kinases
MEK1 binding to MIBs ([3]; 12-24 h, 5 μM AZD6244): remains largely inhibited
MEK1 and MEK2, measured by loss of MIB binding ([3]; 4 h, 5 μM AZD6244): inhibited
MEK2 binding to MIBs, AZD6244/DMSO ratio ([3]; 24 h, 5 μM AZD6244): 1
of the 40 highest expressed kinase transcripts of a patient claudin-low tumor, kinases dynamically regulated in binding to MIBs ([3]; SUM159 and/or MDA-MB-231 cells in response to AZD6244): 14 (24%)
